One assay deals with T1, human GR (Homo sapiens, UniProt P04150).
T1 sequence (P04150 1-777): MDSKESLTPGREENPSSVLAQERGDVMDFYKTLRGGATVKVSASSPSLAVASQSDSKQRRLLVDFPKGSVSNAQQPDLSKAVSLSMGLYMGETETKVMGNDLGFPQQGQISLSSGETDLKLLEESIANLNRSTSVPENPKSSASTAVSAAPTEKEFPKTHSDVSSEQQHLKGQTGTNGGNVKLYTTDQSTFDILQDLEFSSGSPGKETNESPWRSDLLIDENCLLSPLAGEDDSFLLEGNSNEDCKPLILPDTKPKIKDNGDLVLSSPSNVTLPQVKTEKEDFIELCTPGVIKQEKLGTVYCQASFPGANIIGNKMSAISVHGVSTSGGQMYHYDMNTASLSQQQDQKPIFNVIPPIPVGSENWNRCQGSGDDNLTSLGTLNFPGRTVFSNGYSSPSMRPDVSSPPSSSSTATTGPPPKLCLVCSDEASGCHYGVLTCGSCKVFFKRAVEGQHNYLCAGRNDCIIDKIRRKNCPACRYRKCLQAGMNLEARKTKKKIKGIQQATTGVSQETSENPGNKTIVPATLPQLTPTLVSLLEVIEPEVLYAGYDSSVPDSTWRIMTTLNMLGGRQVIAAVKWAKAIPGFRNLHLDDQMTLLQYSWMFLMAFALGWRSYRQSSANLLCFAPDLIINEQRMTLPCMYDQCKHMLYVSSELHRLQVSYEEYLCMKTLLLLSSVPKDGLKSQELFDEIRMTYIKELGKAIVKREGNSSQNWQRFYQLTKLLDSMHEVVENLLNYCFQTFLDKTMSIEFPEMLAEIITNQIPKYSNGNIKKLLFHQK
As to the kind of experiment: Transrepression Assay (GITAR), TNFα-β-lactamase reporter gene in U937 cells. The format is cell-based. Further details: U937 cells contain an endogenous glucocorticoid receptor (GR); endogenous in cells; host or cells: U937 cells stably transfected with the TNF-α promoter/β-lactamase reporter only. The conditions noted are these: U-937, read-out: maximal activity in the transrepression assay. The essentials:
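Reporter readout used CCF2-AM loading for 70–90 min at room temperature after overnight (~18 h, 37 °C) PMA (5 ng/ml final) and LPS (100 ng/ml final) stimulation of compound-treated (30–45 min) TNFα-β-lactamase U937 cells expressing native GR. Activity was normalised to 100 nM dexamethasone repression.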
Background: In a reporter assay the amount or activity of a reporter protein is the signal.
In the case of `C[C@]12Cc3cnn(-c4ccc(F)cc4)c3C=C1CC[C@@]2(O)CCc1ccccc1C(O)(C(N)=O)C1CC1` (stereo partly drawn) [Example 200, 2-cyclopropyl-2-(2-{2-[(4αS,5R)-1-(4-fluorophenyl)-5-hydroxy-4α-methyl-1,4,4α,5,6,7-hexahydrocyclopenta[f]indazol-5-yl]ethyl}phenyl)-2-hydroxyacetamide], the Emax is 5 to 100%.

The same assay, now with this note: U-937; 100 nM dexamethasone = 100% activity; read-out: maximal activity in the transrepression assay.
In the case of `C[C@]12Cc3cnn(-c4ccc(F)cc4)c3C=C1CC[C@@]2(O)CCc1cc(F)ccc1C(N)=O` [Example 166, 4-fluoro-2-{2-[(4αS,5R)-1-(4-fluorophenyl)-5-hydroxy-4α-methyl-1,4,4α,5,6,7-hexahydrocyclopenta[f]indazol-5-yl]ethyl}benzamide], the Emax was 5 to 100%.

With `C[C@]12Cc3cnn(-c4ccccc4)c3C=C1CC[C@@]2(O)CCc1cccc(F)c1C(N)=O` [Example 167, 2-fluoro-6-{2-[(4αS,5R)-5-hydroxy-4α-methyl-1-phenyl-1,4,4α,5,6,7-hexahydrocyclopenta[f]indazol-5-yl]ethyl}benzamide], the Emax fell in the range of 5 to 100%.

In the case of `C[C@]12Cc3cnn(-c4ccc(F)cc4)c3C=C1CC[C@@]2(O)CCc1cccc(Cl)c1C(N)=O` [Example 169, 2-chloro-6-{2-[(4αS,5R)-1-(4-fluorophenyl)-5-hydroxy-4α-methyl-1,4,4α,5,6,7-hexahydrocyclopenta[f]indazol-5-yl]ethyl}benzamide], the Emax is 5 to 100%.

For `C[C@]12Cc3cnn(-c4ccc(F)cc4)c3C=C1CC[C@@]2(O)CCc1cc(Cl)ccc1C(N)=O` [Example 171, 4-chloro-2-{2-[(4αS,5R)-1-(4-fluorophenyl)-5-hydroxy-4α-methyl-1,4,4α,5,6,7-hexahydrocyclopenta[f]indazol-5-yl]ethyl}benzamide], the Emax was in the range of 5 to 100%.

Regarding `C[C@]12Cc3cnn(-c4ccc(F)cc4)c3C=C1CC[C@@]2(O)CCc1cc(C(F)(F)F)ccc1C(N)=O` [Example 173, 2-{2-[(4α6,5R)-1-(4-fluorophenyl)-5-hydroxy-4α-methyl-1,4,4α,5,6,7-hexahydrocyclopenta[f]indazol-5-yl]ethyl}-4-(trifluoromethyl)benzamide], the Emax was in the range of 5 to 100%.

As for `C[C@]12Cc3cnn(-c4ccc(F)cc4)c3C=C1CC[C@@]2(O)CCc1ccc(C(F)(F)F)cc1C(N)=O` [Example 175, 2-{2-[(4αS,5R)-1-(4-fluorophenyl)-5-hydroxy-4α-methyl-1,4,4α,5,6,7-hexahydrocyclopenta[f]indazol-5-yl]ethyl}-5-(trifluoromethyl)benzamide], the Emax fell in the range of 5 to 100%.

On to `C[C@]12Cc3cnn(-c4ccc(F)c(F)c4)c3C=C1CC[C@@]2(O)CCc1cccc(Cl)c1C(N)=O` [Example 176, 2-chloro-6-{2-[(4αS,5R)-1-(3,4-difluorophenyl)-5-hydroxy-4α-methyl-1,4,4α,5,6,7-hexahydrocyclopenta[f]indazol-5-yl]ethyl}benzamide], for which the Emax was 5 to 100%.

Take `C[C@]12Cc3cnn(-c4ccc(F)c(F)c4)c3C=C1CC[C@@]2(O)CCc1cc(Cl)ccc1C(N)=O` [Example 177, 4-chloro-2-{2-[(4αS,5R)-1-(3,4-difluorophenyl)-5-hydroxy-4α-methyl-1,4,4α,5,6,7-hexahydrocyclopenta[f]indazol-5-yl]ethyl}benzamide]: the Emax was 5 to 100%.

With `C[C@]12Cc3cnn(-c4ccc(F)cc4)c3C=C1CC[C@@]2(O)CCc1cc(F)c(F)cc1C(N)=O` [Example 178, 4,5-difluoro-2-{2-[(4αS,5R)-1-(4-fluorophenyl)-5-hydroxy-4α-methyl-1,4,4α,5,6,7-hexahydrocyclopenta[f]indazol-5-yl]ethyl}benzamide], the Emax was in the range of 5 to 100%.

With `CO[C@@]1(CCc2ccc(C(F)(F)F)cc2C(N)=O)CCC2=Cc3c(cnn3-c3ccc(F)cc3)C[C@@]21C` [Example 179, 2-{2-[(4αS,5R)-1-(4-fluorophenyl)-5-methoxy-4α-methyl-1,4,4α,5,6,7-hexahydrocyclopenta[f]indazol-5-yl]ethyl}-5-(trifluoromethyl)benzamide], the Emax lay in the range of 5 to 100%.

For the compound `C[C@]12Cc3cnn(-c4ccc(F)cc4)c3C=C1CC[C@@]2(O)CCc1ccc(C#N)cc1C(N)=O` [Example 180, 5-cyano-2-{2-[(4αS,5R)-1-(4-fluorophenyl)-5-hydroxy-4α-methyl-1,4,4α,5,6,7-hexahydrocyclopenta[f]indazol-5-yl]ethyl}benzamide], the Emax is 5 to 100%.

In the case of `Cc1ccc(CC[C@]2(O)CCC3=Cc4c(cnn4-c4ccc(F)cc4)C[C@@]32C)c(C(N)=O)c1` [Example 181, 2-{2-[(4αS,5R)-1-(4-fluorophenyl)-5-hydroxy-4α-methyl-1,4,4α,5,6,7-hexahydrocyclopenta[f]indazol-5-yl]ethyl}-5-methylbenzamide], the Emax was 5 to 100%.

Take `Cc1cccc(CC[C@]2(O)CCC3=Cc4c(cnn4-c4ccc(F)cc4)C[C@@]32C)c1C(N)=O` [Example 182, 2-{2-[(4αS,5R)-1-(4-fluorophenyl)-5-hydroxy-4α-methyl-1,4,4α,5,6,7-hexahydrocyclopenta[f]indazol-5-yl]ethyl}-6-methylbenzamide]: the Emax lay within 5 to 100%.

For `C[C@]12Cc3cnn(-c4ccc(F)cc4)c3C=C1CC[C@@]2(O)CCc1ccc(F)c(F)c1C(N)=O` [Example 183, 2,3-difluoro-6-{2-[(4αS,5R)-1-(4-fluorophenyl)-5-hydroxy-4α-methyl-1,4,4α,5,6,7-hexahydrocyclopenta[f]indazol-5-yl]ethyl}benzamide], the Emax was in the range of 5 to 100%.

As to `C[C@]12Cc3cnn(-c4ccc(Cl)cc4)c3C=C1CC[C@@]2(O)CCc1ccccc1C(N)=O` [Example 184, 2-{2-[(4αS,5R)-1-(4-chlorophenyl)-5-hydroxy-4α-methyl-1,4,4α,5,6,7-hexahydrocyclopenta[f]indazol-5-yl]ethyl}benzamide], the Emax is 5 to 100%.

Take `Cc1cccc(CC[C@]2(O)CCC3=Cc4c(cnn4-c4ccc(F)c(F)c4)C[C@@]32C)c1C(N)=O` [Example 186, 2-{2-[(4αS,5R)-1-(3,4-difluorophenyl)-5-hydroxy-4α-methyl-1,4,4α,5,6,7-hexahydrocyclopenta[f]indazol-5-yl]ethyl}-6-methylbenzamide]: the Emax was in the range of 5 to 100%.

With `C[C@]12Cc3cnn(-c4cccc(F)c4)c3C=C1CC[C@@]2(O)CCc1ccccc1C(N)=O` [Example 187, 2-{2-[(4αS,5R)-1-(3-fluorophenyl)-5-hydroxy-4α-methyl-1,4,4α,5,6,7-hexahydrocyclopenta[f]indazol-5-yl]ethyl}benzamide], the Emax is 5 to 100%.

Take `C[C@]12Cc3cnn(-c4ccc(F)cc4)c3C=C1CC[C@@]2(O)CCc1cccc(C(F)(F)F)c1C(N)=O` [Example 188, 2-{2-[(4αS,5R)-1-(4-fluorophenyl)-5-hydroxy-4α-methyl-1,4,4α,5,6,7-hexahydrocyclopenta[f]indazol-5-yl]ethyl}-6-(trifluoromethyl)benzamide]: the Emax is 5 to 100%.

On to `C[C@]12Cc3cnn(-c4ccc(F)cc4)c3C=C1CC[C@@]2(O)CCc1ccc(-c2ccccc2)cc1C(N)=O` [Example 190, 4-{2-[(4αS,5R)-1-(4-fluorophenyl)-5-hydroxy-4α-methyl-1,4,4α,5,6,7-hexahydrocyclopenta[f]indazol-5-yl]ethyl}biphenyl-3-carboxamide], for which the Emax lay in the range of 5 to 100%.

For the compound `C[C@]12Cc3cnn(-c4ccc(F)cc4)c3C=C1CC[C@@]2(O)CCc1ccccc1C(O)C(N)=O` (stereo partly drawn) [Example 192, 2-(2-{2-[(4αS,5R)-1-(4-fluorophenyl)-5-hydroxy-4α-methyl-1,4,4α,5,6,7-hexahydrocyclopenta[f]indazol-5-yl]ethyl}phenyl)-2-hydroxyacetamide], the Emax was 5 to 100%.

In the case of `C[C@]12Cc3cnn(-c4ccc(F)cc4)c3C=C1CC[C@@]2(O)CCc1cc(F)ccc1CC(N)=O` [Example 193, 2-(4-fluoro-2-{2-[(4αS,5R)-1-(4-fluorophenyl)-5-hydroxy-4α-methyl-1,4,4α,5,6,7-hexahydrocyclopenta[f]indazol-5-yl]ethyl}phenyl)acetamide], the Emax lay in the range of 5 to 100%.

For the compound `C[C@]12Cc3cnn(-c4ccc(F)c(F)c4)c3C=C1CC[C@@]2(O)CCc1ccccc1CC(N)=O` [Example 195, 2-(2-{2-[(4αS,5R)-1-(3,4-difluorophenyl)-5-hydroxy-4α-methyl-1,4,4α,5,6,7-hexahydrocyclopenta[f]indazol-5-yl]ethyl}phenyl)acetamide], the Emax was in the range of 5 to 100%.

For the origin of these results see US8119681B2, “2-[1-phenyl-5-hydroxy or methoxy-4alpha-methyl-hexahydrocyclopenta [ƒ]indazole-5-YL]ethyl phenyl derivatives as glucocorticoid receptor ligands” (Merck Sharp & Dohme Corp., priority 2006, dated 2012).
